Assay results from patent US9216999B2, “Substituted pyrrolo[2,3-h][1,6]naphthyridines and compositions thereof as JAK inhibitors” (priority 2011, dated 2015).
Where two headings read alike, the source gives them in different places.

Key:
[1] = target: JAK1 (Homo sapiens (Human), UniProt P23458); test: JAK1 enzyme assay (Assay Example^b 1)
[2] = target: JAK3 (Homo sapiens (Human), UniProt P52333); test: JAK3 enzyme assay (Assay Example^b 1)
[3] = target: Tyk2 (Homo sapiens (Human), UniProt P29597); test: Tyk2 enzyme assay (Assay Example^b 1)
[4] = target: JAK2 (Homo sapiens (Human), UniProt O60674); test: JAK2 enzyme assay (Assay Example^b 1)
[5] = IC50 (μM) JAK1, Table^b 80, ATP 100 μM
[6] = IC50 (μM) JAK3, Table^b 80, ATP 100 μM
[7] = IC50 (μM) TYK2, Table^b 80, ATP 100 μM
[8] = IC50 (μM) JAK2, Table^b 80, ATP 100 μM
[9] = IC50 (μM) JAK1, Table^b 78, ATP 100 μM
[10] = IC50 (μM) JAK3, Table^b 78, ATP 100 μM
[11] = IC50 (μM) TYK2, Table^b 79, ATP 100 μM
[12] = IC50 (μM) JAK2, Table^b 79, ATP 100 μM

Chain of JAK3 (P52333 whole entry): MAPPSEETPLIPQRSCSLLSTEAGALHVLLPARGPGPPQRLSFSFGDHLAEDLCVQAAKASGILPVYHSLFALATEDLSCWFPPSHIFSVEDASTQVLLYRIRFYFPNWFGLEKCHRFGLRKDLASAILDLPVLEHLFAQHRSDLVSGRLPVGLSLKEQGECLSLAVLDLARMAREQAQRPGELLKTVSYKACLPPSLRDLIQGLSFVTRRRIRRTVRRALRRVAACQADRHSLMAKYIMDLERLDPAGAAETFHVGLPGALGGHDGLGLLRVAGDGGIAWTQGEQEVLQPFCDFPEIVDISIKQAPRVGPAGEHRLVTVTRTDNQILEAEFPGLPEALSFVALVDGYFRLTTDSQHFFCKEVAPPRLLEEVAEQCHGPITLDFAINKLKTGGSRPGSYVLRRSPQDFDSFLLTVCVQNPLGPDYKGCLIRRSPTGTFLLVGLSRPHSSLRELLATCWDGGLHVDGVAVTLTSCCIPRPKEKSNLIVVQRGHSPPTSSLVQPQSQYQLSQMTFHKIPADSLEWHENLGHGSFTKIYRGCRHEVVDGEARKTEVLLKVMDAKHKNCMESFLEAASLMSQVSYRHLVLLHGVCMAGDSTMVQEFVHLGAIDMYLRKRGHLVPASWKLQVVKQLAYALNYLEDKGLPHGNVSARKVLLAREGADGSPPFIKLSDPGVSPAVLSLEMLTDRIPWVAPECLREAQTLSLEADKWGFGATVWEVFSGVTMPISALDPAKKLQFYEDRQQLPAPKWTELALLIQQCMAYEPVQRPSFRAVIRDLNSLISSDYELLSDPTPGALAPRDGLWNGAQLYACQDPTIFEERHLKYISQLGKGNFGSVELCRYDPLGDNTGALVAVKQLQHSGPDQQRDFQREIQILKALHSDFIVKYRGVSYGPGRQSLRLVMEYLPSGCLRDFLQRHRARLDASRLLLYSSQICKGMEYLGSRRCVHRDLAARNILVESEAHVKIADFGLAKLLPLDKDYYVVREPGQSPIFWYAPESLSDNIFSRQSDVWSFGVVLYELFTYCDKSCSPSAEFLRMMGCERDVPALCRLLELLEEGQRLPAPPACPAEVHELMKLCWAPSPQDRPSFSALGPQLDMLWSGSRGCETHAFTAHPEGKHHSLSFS
Chain of Tyk2 (P29597 whole entry): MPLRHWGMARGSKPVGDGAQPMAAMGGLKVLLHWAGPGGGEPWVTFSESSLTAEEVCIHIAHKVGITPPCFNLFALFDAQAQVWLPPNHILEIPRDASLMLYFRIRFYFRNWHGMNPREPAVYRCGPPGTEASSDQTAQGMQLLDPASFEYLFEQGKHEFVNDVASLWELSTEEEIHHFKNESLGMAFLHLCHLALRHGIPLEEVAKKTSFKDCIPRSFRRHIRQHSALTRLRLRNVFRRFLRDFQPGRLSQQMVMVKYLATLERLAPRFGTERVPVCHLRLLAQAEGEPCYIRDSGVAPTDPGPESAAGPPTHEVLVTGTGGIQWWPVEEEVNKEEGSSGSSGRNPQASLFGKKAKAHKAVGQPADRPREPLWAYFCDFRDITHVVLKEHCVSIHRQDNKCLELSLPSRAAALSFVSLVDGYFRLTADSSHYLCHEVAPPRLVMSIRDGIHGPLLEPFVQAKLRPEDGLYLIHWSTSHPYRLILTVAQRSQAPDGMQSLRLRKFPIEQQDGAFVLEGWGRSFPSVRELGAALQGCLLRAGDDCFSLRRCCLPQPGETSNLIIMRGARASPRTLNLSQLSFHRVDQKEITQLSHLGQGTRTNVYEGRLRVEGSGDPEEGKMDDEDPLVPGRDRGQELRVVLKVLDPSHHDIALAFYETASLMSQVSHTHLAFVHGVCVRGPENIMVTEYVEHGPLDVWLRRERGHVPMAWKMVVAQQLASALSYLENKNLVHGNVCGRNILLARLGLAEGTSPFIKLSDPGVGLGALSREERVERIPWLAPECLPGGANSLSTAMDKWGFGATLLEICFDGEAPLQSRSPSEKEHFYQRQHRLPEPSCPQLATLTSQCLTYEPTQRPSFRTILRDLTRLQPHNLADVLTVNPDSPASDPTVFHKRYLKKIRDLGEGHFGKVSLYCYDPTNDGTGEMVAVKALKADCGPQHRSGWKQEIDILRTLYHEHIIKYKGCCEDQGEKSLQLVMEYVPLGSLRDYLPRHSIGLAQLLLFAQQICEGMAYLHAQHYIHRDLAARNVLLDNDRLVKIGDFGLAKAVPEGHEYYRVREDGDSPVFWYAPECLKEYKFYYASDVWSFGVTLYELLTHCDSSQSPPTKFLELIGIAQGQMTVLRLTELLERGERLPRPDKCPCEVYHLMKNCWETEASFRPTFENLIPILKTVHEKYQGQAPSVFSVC

O=c1[nH]c(=O)n(C2CCN(CCNC3CCNCC3)CC2)c2c1cnc1[nH]ccc12 [compound 111]
IC50 ([1]; IC50 (μM) JAK1, ATP 100 μM): 0.44 µM
IC50 ([2]; IC50 (μM) JAK3, ATP 100 μM): > 1 µM
IC50 ([3]; IC50 (μM) TYK2, ATP 100 μM): > 1 µM
IC50 ([4]; IC50 (μM) JAK2, ATP 100 μM): > 1 µM

C[C@@H]1CCN(Cc2ccccc2)C[C@@H]1n1ccc(=O)c2cnc3[nH]cc(Br)c3c21 (racemic) [compound 21]
IC50 [1, 5]: 0.56 µM
IC50 [2, 6]: 0.82 µM
IC50 [3, 7]: > 1 µM
IC50 [4, 8]: 1.3 µM

O=CC1CCC(n2c(=O)[nH]c(=O)c3cnc4[nH]ccc4c32)CC1 (stereo not shown) [compound 133]
IC50 ([1]; IC50 (μM) JAK1, ATP 100 μM): 0.012 µM
IC50 ([2]; IC50 (μM) JAK3, ATP 100 μM): > 1 µM
IC50 ([3]; IC50 (μM) TYK2, ATP 100 μM): 0.41 µM

C[C@@H]1CCN(C(=O)CC2CC2)C[C@@H]1n1ccc(=O)c2cnc3[nH]ccc3c21 (racemic) [compound 8]
IC50 [1, 9]: 0.026 µM
IC50 [2, 10]: 0.041 µM
IC50 [3, 11]: 1.5 µM
IC50 [4, 12]: 0.075 µM

CC(C)(C)OC(=O)N1CCC(NCCN2CCC(n3c(=O)[nH]c(=O)c4cnc5[nH]ccc5c43)CC2)CC1 [compound 109]
IC50 ([1]; IC50 (μM) JAK1, ATP 100 μM): 0.92 µM
IC50 ([2]; IC50 (μM) JAK3, ATP 100 μM): > 1 µM
IC50 ([3]; IC50 (μM) TYK2, ATP 100 μM): > 1 µM
IC50 ([4]; IC50 (μM) JAK2, ATP 100 μM): > 1 µM

O=C1NCc2cnc3[nH]ccc3c2N1C1CCN(Cc2cncs2)CC1 [compound 66]
IC50 [1, 5]: 0.08 µM
IC50 [3, 7]: 0.99 µM
IC50 [4, 8]: 0.14 µM

C[C@@H]1CCN(S(=O)(=O)CC(F)(F)F)C[C@@H]1n1ccc(=O)c2cnc3[nH]ccc3c21 (racemic) [compound 11]
IC50 [4, 12]: 0.033 µM

C[C@@H]1CCN(C(=O)CC#N)C[C@@H]1N1COCc2cnc3[nH]ccc3c21 (racemic) [compound 16]
IC50 [1, 9]: 0.038 µM
IC50 [2, 10]: 0.11 µM

CN(CC(F)(F)F)C[C@H]1CC[C@H](n2c(=O)[nH]c(=O)c3cnc4[nH]ccc4c32)CC1 [Synthetic Example^b 136, 1-(trans-4-{[Methyl(2,2,2-trifluoroethyl)amino]methyl}cyclohexyl)-1H-pyrrolo[3′,2′:5,6]pyrido[4,3-d]pyrimidine-2,4(3H,7H)-dione]
IC50 ([1]; IC50 (μM) JAK1, ATP 100 μM): 0.0032 µM
IC50 ([2]; IC50 (μM) JAK3, ATP 100 μM): 0.75 µM

O=c1ccn(C2C3CC4CC2CC(O)(C4)C3)c2c1cnc1[nH]ccc12 (stereo not shown) [compound 106]
IC50 ([1]; IC50 (μM) JAK1, ATP 100 μM): 0.047 µM
IC50 ([2]; IC50 (μM) JAK3, ATP 100 μM): 0.61 µM
IC50 ([3]; IC50 (μM) TYK2, ATP 100 μM): 0.38 µM
IC50 ([4]; IC50 (μM) JAK2, ATP 100 μM): 0.25 µM

C[C@@H]1CCN(C(=O)CC#N)C[C@@H]1n1ccc(=O)c2cnc3[nH]ccc3c21 (racemic) [compound 7]
IC50 [1, 9]: 0.0017 µM
IC50 [2, 10]: 0.0032 µM
IC50 [3, 11]: 0.06 µM
IC50 [4, 12]: 0.004 µM

N#CCC[C@H]1CC[C@H](n2c(=O)[nH]c(=O)c3cnc4[nH]ccc4c32)CC1 [Synthetic Example^b 134, 3-[trans-4-(2,4-Dioxo-2,3,4,7-tetrahydro-1H-pyrrolo[3′,2′:5,6]pyrido[4,3-d]pyrimidin-1-yl)cyclohexyl]propanenitrile]
IC50 ([1]; IC50 (μM) JAK1, ATP 100 μM): 0.002 µM
IC50 ([2]; IC50 (μM) JAK3, ATP 100 μM): 0.81 µM
IC50 ([3]; IC50 (μM) TYK2, ATP 100 μM): 0.032 µM

O=c1[nH]c(=O)n(C2C3CC4CC2CC(O)(C4)C3)c2c1cnc1[nH]ccc12 (stereo not shown) [compound 105]
IC50 ([2]; IC50 (μM) JAK3, ATP 100 μM): > 1 µM
IC50 ([3]; IC50 (μM) TYK2, ATP 100 μM): > 1 µM
IC50 ([4]; IC50 (μM) JAK2, ATP 100 μM): > 1 µM

O=c1[nH]c(=O)n(C2CCN(CCNCC3CC3)CC2)c2c1cnc1[nH]ccc12 [compound 110]
IC50 ([1]; IC50 (μM) JAK1, ATP 100 μM): 0.42 µM
IC50 ([4]; IC50 (μM) JAK2, ATP 100 μM): > 1 µM

O=C(CC(F)(F)F)N1CCC(N2C(=O)NCc3cnc4[nH]ccc4c32)CC1 [compound 65]
IC50 [2, 6]: 9.5 µM
IC50 [3, 7]: 2.9 µM

O=C(CC(F)(F)F)N(CC(F)(F)F)C[C@H]1CC[C@H](n2c(=O)[nH]c(=O)c3cnc4[nH]ccc4c32)CC1 [compound 155]
IC50 ([1]; IC50 (μM) JAK1, ATP 100 μM): 0.0021 µM
IC50 ([4]; IC50 (μM) JAK2, ATP 100 μM): 0.055 µM

O=c1ccn(C2C3CC4CC2CC(O)(C4)C3)c2c1cnc1[nH]ccc12 (stereo not shown) [compound 107]
IC50 ([1]; IC50 (μM) JAK1, ATP 100 μM): 0.31 µM
IC50 ([2]; IC50 (μM) JAK3, ATP 100 μM): 0.41 µM
IC50 ([3]; IC50 (μM) TYK2, ATP 100 μM): > 1 µM
IC50 ([4]; IC50 (μM) JAK2, ATP 100 μM): 0.6 µM

O=C1NCc2cnc3[nH]ccc3c2N1C1CCN(S(=O)(=O)Cc2ccccc2)CC1 [compound 60]
IC50 [1, 5]: 0.35 µM
IC50 [2, 6]: > 1 µM
IC50 [3, 7]: > 1 µM
IC50 [4, 8]: 0.48 µM

c1cc2c3c(cnc2[nH]1)COCN3C1CCCCC1 [compound 2]
IC50 [1, 9]: 0.33 µM
IC50 [4, 12]: 1.9 µM

O=c1ccn(C2CCCCC2)c2c1cnc1[nH]ccc12 [compound 3]
IC50 [1, 9]: 0.017 µM
IC50 [2, 10]: 0.22 µM

C[C@@H]1CCN(Cc2ccccc2)C[C@@H]1n1cc(Br)c(=O)c2cnc3[nH]ccc3c21 (racemic) [compound 24]
IC50 ([4]; IC50 (μM) JAK2): 0.74 µM

N#CCn1c(=O)c2cnc3[nH]ccc3c2n(C2CCCCC2)c1=O [Synthetic Example^b 137, 2-(1-Cyclohexyl-2,4-dioxo-1H-pyrrolo[3′,2′:5,6]pyrido[4,3-d]pyrimidin-3(2H,4H,7H)-yl)acetonitrile]
IC50 ([1]; IC50 (μM) JAK1, ATP 100 μM): 0.057 µM
IC50 ([2]; IC50 (μM) JAK3, ATP 100 μM): 0.91 µM
IC50 ([3]; IC50 (μM) TYK2, ATP 100 μM): > 1 µM
IC50 ([4]; IC50 (μM) JAK2, ATP 100 μM): > 1 µM

N#Cc1ccc(CN2CCC(N3C(=O)NCc4cnc5[nH]ccc5c43)CC2)cc1 [compound 62]
IC50 [2, 6]: > 1 µM
IC50 [3, 7]: > 1 µM

O=c1[nH]c(=O)n(C2CCN(Cc3ccc(Br)s3)CC2)c2c1cnc1[nH]ccc12 [compound 89]
IC50 ([1]; IC50 (μM) JAK1, ATP 100 μM): 0.011 µM
IC50 ([2]; IC50 (μM) JAK3, ATP 100 μM): > 1 µM
IC50 ([3]; IC50 (μM) TYK2, ATP 100 μM): > 1 µM
IC50 ([4]; IC50 (μM) JAK2, ATP 100 μM): > 1 µM

O=c1[nH]c(=O)n(C2CCC(CNCC3CC3)CC2)c2c1cnc1[nH]ccc12 (stereo not shown) [compound 117]
IC50 ([1]; IC50 (μM) JAK1, ATP 100 μM): 0.03 µM
IC50 ([2]; IC50 (μM) JAK3, ATP 100 μM): > 1 µM

CC1OCN(C2CCCCC2)c2c1cnc1[nH]ccc21 (stereo not shown) [compound 1]
IC50 [1, 9]: 0.38 µM
IC50 [2, 10]: 2 µM
IC50 [3, 11]: 4.1 µM

O=C(Nc1nncs1)N1CCC(N2C(=O)NCc3cnc4[nH]ccc4c32)CC1 [compound 64]
IC50 [1, 5]: 0.012 µM
IC50 [3, 7]: 0.17 µM
IC50 [4, 8]: 0.02 µM

O=c1ccn(C2CCN(Cc3ccc(Br)o3)CC2)c2c1cnc1[nH]ccc12 [compound 80]
IC50 [2, 6]: 0.34 µM
IC50 [3, 7]: 0.24 µM
IC50 [4, 8]: 0.02 µM

O=C1NCc2cnc3[nH]ccc3c2N1C1CCCCC1 [compound 17]
IC50 [2, 10]: 0.69 µM
IC50 [3, 11]: 0.093 µM
IC50 [4, 12]: 0.02 µM

C[C@@H]1CCN(S(=O)(=O)c2cccc(C(F)(F)F)c2)C[C@@H]1n1ccc(=O)c2cnc3[nH]ccc3c21 (racemic) [compound 33]
IC50 ([4]; IC50 (μM) JAK2): 0.12 µM

O=C1NCc2cnc3[nH]ccc3c2N1C1CCN(Cc2cccnc2)CC1 [compound 61]
IC50 [3, 7]: 3.6 µM

O=c1[nH]c(=O)n(C2C3CC4CC2CC(O)(C4)C3)c2c1cnc1[nH]ccc12 (stereo not shown) [compound 104]
IC50 ([2]; IC50 (μM) JAK3, ATP 100 μM): 0.38 µM
IC50 ([3]; IC50 (μM) TYK2, ATP 100 μM): 0.38 µM
IC50 ([4]; IC50 (μM) JAK2, ATP 100 μM): 0.046 µM

CC1CCN(C(=O)C2CCC(C(C)(C)C)CC2)CC1n1ccc(=O)c2cnc3[nH]ccc3c21 (single isomer, unassigned) [Synthetic Example^b 48b, 1-{1-[4-(tert-Butyl)cyclohexanecarbonyl]-4-methylpiperidin-3-yl}-1H-pyrrolo[2,3-h][1,6]naphthyridin-4(7H)-one]
IC50 [1, 5]: 0.094 µM
IC50 [2, 6]: 0.36 µM
IC50 ([3]; read-out: IC50 (μM) TYK2, Table^b 80, ATP 100 μM): > 1 µM

O=c1ccn(C2CCCCC2)c2c1cnc1[nH]cnc12 [compound 20]
IC50 [1, 9]: 0.28 µM
IC50 [3, 11]: 0.76 µM

C[C@@H]1CCN(C2CCCC2)C[C@@H]1n1ccc(=O)c2cnc3[nH]ccc3c21 (racemic) [compound 47]
IC50 [3, 7]: > 1 µM

O=c1ncc2cnc3[nH]ccc3c2n1C1CCCCC1 [compound 18]
IC50 [3, 11]: 0.25 µM

CC1CCN(C(=O)C2CCC(C(C)(C)C)CC2)CC1n1ccc(=O)c2cnc3[nH]ccc3c21 (single isomer, unassigned) [Synthetic Example^b 48a, 1-{1-[4-(tert-Butyl)cyclohexanecarbonyl]-4-methylpiperidin-3-yl}-1H-pyrrolo[2,3-h][1,6]naphthyridin-4(7H)-one]
IC50 [1, 5]: 0.14 µM
IC50 [2, 6]: > 1 µM
IC50 [3, 7]: > 1 µM

O=S1(=O)C=CN(C2CCCCC2)c2c1cnc1[nH]ccc21 [compound 12]
IC50 [1, 9]: 0.13 µM
IC50 [3, 11]: > 1 µM

O=C1NCc2cnc3[nH]ccc3c2N1C1CCN(Cc2ccccc2)CC1 [compound 59]
IC50 [2, 6]: 2.1 µM
IC50 [3, 7]: 4.3 µM

O=c1c2cnc3[nH]ccc3c2n(C2CCCCC2)c(=O)n1CC(F)(F)F [Synthetic Example^b 139, 1-cyclohexyl-3-(2,2,2-trifluoroethyl)-1H-pyrrolo[3′,2′:5,6]pyrido[4,3-d]pyrimidine-2,4(3H,7H)-dione]
IC50 ([1]; IC50 (μM) JAK1, ATP 100 μM): 0.1 µM
IC50 ([2]; IC50 (μM) JAK3, ATP 100 μM): > 1 µM
IC50 ([3]; IC50 (μM) TYK2, ATP 100 μM): > 1 µM
